Measurements reported in patent US11077090B2, “Compounds and compositions and uses thereof” (Sunovion Pharmaceuticals Inc., priority 2016, dated 2021).

Test system: compound-treated mice
Assay: Neuropharmacological assay (SmartCube): behavioral activity signature and minimal effective dose
Type: in vivo
Details: Mus musculus, ip, MED = dose having 50% or more total activity, read-out: Potency: minimal effective dose (MED)
Method in brief: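 Mice dosed i.p. 15 min before test, compound in N-methyl-2-pyrrolidone/PEG/propylene glycol, 3 doses; video-captured behavior matched to reference-drug signatures, giving per-class probabilities at most efficacious dose. MED from doses typically 0.3–30 mpk, defined as lowest dose with ≥50% total activity.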

SMILES | minimal effective dose [mg/kg]
Cc1ccc2c(c1)C(N(C)C)CCOC2.Cl (stereo not drawn) [Example 62] | 3 to 10
Cc1ccc2c(c1)C(N)C(C)(C)COC2.Cl (stereo not drawn) [Example 63, 4,4,7-Trimethyl-1,3,4,5-tetrahydrobenzo[c]oxepin-5-amine hydrochloride] | 10 to 30
CC1(N)COCc2ccc(F)cc21.Cl (stereo not drawn) [Example 68, 6-Fluoro-4-methylisochroman-4-amine hydrochloride] | 10 to 30
Cc1ccc2c(c1C)[C@H](N)[C@H](C)OC2.Cl [Example 78] | 3 to 10
Cc1ccc2c(c1C)[C@H](N)[C@@H](C)OC2.Cl [Example 79] | 3 to 10
C[C@@H]1OCc2cccc(Cl)c2[C@@H]1N.Cl [Example 80] | < 3
C[C@H]1OCc2cccc(Cl)c2[C@@H]1N.Cl [Example 81] | < 3
Cc1cccc2c1[C@H](N)[C@H](C)OC2.Cl [Example 82] | < 3
Cc1cccc2c1[C@H](N)[C@@H](C)OC2.Cl [Example 83] | 3 to 10
COc1ccc2c(c1)[C@H](N)[C@H](C)OC2.Cl [Example 84] | 3 to 10
COc1ccc2c(c1)[C@H](N)[C@@H](C)OC2.Cl [Example 85] | 3 to 10
C[C@@H]1OCc2c(Cl)cccc2[C@@H]1N.Cl [Example 86] | 10 to 30
C[C@H]1OCc2c(Cl)cccc2[C@@H]1N.Cl [Example 87] | 3 to 10
C[C@@H]1OCc2ccc(F)cc2[C@@H]1N.Cl [Example 88] | < 3
C[C@H]1OCc2ccc(F)cc2[C@@H]1N.Cl [Example 89] | < 3

Same assay, conditions: i.p. 15 min before test, most efficacious dose(s)

SMILES | AD: ADHD (probability of activity signature) | AG: analgesic (probability of activity signature) | AX: anxiolytic (probability of activity signature) | CE: cognitive enhancer (probability of activity signature) | DP: anti-depressant (probability of activity signature) | MS: mood stabilizer (probability of activity signature) | PS: anti-psychotic (probability of activity signature) | SD: sedative hypnotic (probability of activity signature) | UN: uncharacterized CNS activity (probability of activity signature)
Cc1ccc2c(c1)C(N(C)C)CCOC2.Cl (stereo not drawn) [Example 62] | + (LOQ ≤ + <5%) | ++ (5% ≤ ++ <25%) | ++ (5% ≤ ++ <25%) | +++ (25% ≤ +++ <50%) | ++ (5% ≤ ++ <25%) | ++ (5% ≤ ++ <25%) | ++ (5% ≤ ++ <25%) | + (LOQ ≤ + <5%) | ++++ (50% ≤ ++++)
Cc1ccc2c(c1)C(N)C(C)(C)COC2.Cl (stereo not drawn) [Example 63, 4,4,7-Trimethyl-1,3,4,5-tetrahydrobenzo[c]oxepin-5-amine hydrochloride] | + (LOQ ≤ + <5%) | ++ (5% ≤ ++ <25%) | ++ (5% ≤ ++ <25%) | ++ (5% ≤ ++ <25%) | ++ (5% ≤ ++ <25%) | + (LOQ ≤ + <5%) | + (LOQ ≤ + <5%) | + (LOQ ≤ + <5%) | ++ (5% ≤ ++ <25%)
CC1(N)COCc2ccc(F)cc21.Cl (stereo not drawn) [Example 68, 6-Fluoro-4-methylisochroman-4-amine hydrochloride] | + (LOQ ≤ + <5%) | ++ (5% ≤ ++ <25%) | ++ (5% ≤ ++ <25%) | ++ (5% ≤ ++ <25%) | ++ (5% ≤ ++ <25%) | + (LOQ ≤ + <5%) | ++ (5% ≤ ++ <25%) | + (LOQ ≤ + <5%) | ++ (5% ≤ ++ <25%)
Cc1ccc2c(c1C)[C@H](N)[C@H](C)OC2.Cl [Example 78] | + (LOQ ≤ + <5%) | ++ (5% ≤ ++ <25%) | ++ (5% ≤ ++ <25%) | ++ (5% ≤ ++ <25%) | ++ (5% ≤ ++ <25%) | + (LOQ ≤ + <5%) | +++ (25% ≤ +++ <50%) | + (LOQ ≤ + <5%) | ++++ (50% ≤ ++++)
Cc1ccc2c(c1C)[C@H](N)[C@@H](C)OC2.Cl [Example 79] | + (LOQ ≤ + <5%) | ++ (5% ≤ ++ <25%) | +++ (25% ≤ +++ <50%) | ++ (5% ≤ ++ <25%) | ++ (5% ≤ ++ <25%) | + (LOQ ≤ + <5%) | ++ (5% ≤ ++ <25%) | ++ (5% ≤ ++ <25%) | ++ (5% ≤ ++ <25%)
C[C@@H]1OCc2cccc(Cl)c2[C@@H]1N.Cl [Example 80] | + (LOQ ≤ + <5%) | ++ (5% ≤ ++ <25%) | +++ (25% ≤ +++ <50%) | + (LOQ ≤ + <5%) | + (LOQ ≤ + <5%) | + (LOQ ≤ + <5%) | ++ (5% ≤ ++ <25%) | ++ (5% ≤ ++ <25%) | +++ (25% ≤ +++ <50%)
C[C@H]1OCc2cccc(Cl)c2[C@@H]1N.Cl [Example 81] | + (LOQ ≤ + <5%) | ++ (5% ≤ ++ <25%) | +++ (25% ≤ +++ <50%) | ++ (5% ≤ ++ <25%) | ++ (5% ≤ ++ <25%) | + (LOQ ≤ + <5%) | ++ (5% ≤ ++ <25%) | ++ (5% ≤ ++ <25%) | +++ (25% ≤ +++ <50%)
Cc1cccc2c1[C@H](N)[C@H](C)OC2.Cl [Example 82] | + (LOQ ≤ + <5%) | ++ (5% ≤ ++ <25%) | +++ (25% ≤ +++ <50%) | ++ (5% ≤ ++ <25%) | ++ (5% ≤ ++ <25%) | + (LOQ ≤ + <5%) | ++ (5% ≤ ++ <25%) | ++ (5% ≤ ++ <25%) | +++ (25% ≤ +++ <50%)
Cc1cccc2c1[C@H](N)[C@@H](C)OC2.Cl [Example 83] | + (LOQ ≤ + <5%) | ++ (5% ≤ ++ <25%) | ++ (5% ≤ ++ <25%) | ++ (5% ≤ ++ <25%) | + (LOQ ≤ + <5%) | + (LOQ ≤ + <5%) | ++ (5% ≤ ++ <25%) | + (LOQ ≤ + <5%) | ++++ (50% ≤ ++++)
COc1ccc2c(c1)[C@H](N)[C@H](C)OC2.Cl [Example 84] | + (LOQ ≤ + <5%) | ++ (5% ≤ ++ <25%) | ++++ (50% ≤ ++++) | ++ (5% ≤ ++ <25%) | ++ (5% ≤ ++ <25%) | + (LOQ ≤ + <5%) | ++ (5% ≤ ++ <25%) | + (LOQ ≤ + <5%) | +++ (25% ≤ +++ <50%)
COc1ccc2c(c1)[C@H](N)[C@@H](C)OC2.Cl [Example 85] | + (LOQ ≤ + <5%) | +++ (25% ≤ +++ <50%) | ++ (5% ≤ ++ <25%) | ++ (5% ≤ ++ <25%) | ++ (5% ≤ ++ <25%) | + (LOQ ≤ + <5%) | + (LOQ ≤ + <5%) | + (LOQ ≤ + <5%) | +++ (25% ≤ +++ <50%)
C[C@@H]1OCc2c(Cl)cccc2[C@@H]1N.Cl [Example 86] | + (LOQ ≤ + <5%) | ++ (5% ≤ ++ <25%) | ++ (5% ≤ ++ <25%) | ++ (5% ≤ ++ <25%) | + (LOQ ≤ + <5%) | + (LOQ ≤ + <5%) | ++ (5% ≤ ++ <25%) | + (LOQ ≤ + <5%) | +++ (25% ≤ +++ <50%)
C[C@H]1OCc2c(Cl)cccc2[C@@H]1N.Cl [Example 87] | + (LOQ ≤ + <5%) | ++ (5% ≤ ++ <25%) | ++ (5% ≤ ++ <25%) | ++ (5% ≤ ++ <25%) | ++ (5% ≤ ++ <25%) | + (LOQ ≤ + <5%) | ++ (5% ≤ ++ <25%) | ++ (5% ≤ ++ <25%) | +++ (25% ≤ +++ <50%)
C[C@@H]1OCc2ccc(F)cc2[C@@H]1N.Cl [Example 88] | + (LOQ ≤ + <5%) | ++ (5% ≤ ++ <25%) | +++ (25% ≤ +++ <50%) | ++ (5% ≤ ++ <25%) | + (LOQ ≤ + <5%) | + (LOQ ≤ + <5%) | ++ (5% ≤ ++ <25%) | ++ (5% ≤ ++ <25%) | +++ (25% ≤ +++ <50%)
C[C@H]1OCc2ccc(F)cc2[C@@H]1N.Cl [Example 89] | + (LOQ ≤ + <5%) | ++ (5% ≤ ++ <25%) | ++ (5% ≤ ++ <25%) | ++ (5% ≤ ++ <25%) | + (LOQ ≤ + <5%) | + (LOQ ≤ + <5%) | ++ (5% ≤ ++ <25%) | ++ (5% ≤ ++ <25%) | ++++ (50% ≤ ++++)
